Consider 5 substances from patent US20120022142A1, “RNA Interference Mediated Inhibition of Signal Transducer and Activator of Transcription 1 (STAT1) Gene Expression Using Short Interfering Nucleic Acid (siNA)” (Merck Sharp & Dohme Corp., priority 2009, published 2012).

[invAb] = inverted abasic unit; m = 2'-O-methyl; r = 2'-OH (RNA); f = 2'-fluoro

One data set relates to STAT1 protein. As to the kind of experiment: STAT1 Western Blot in transfected A549 cells. The data set is classed as cell-based, human. Particulars: % protein remaining (STAT1α and STAT1β together), A549, 30 nM; for Protein 24 hr: 24 hr post-transfection; for Protein 48 hr: 48 hr post-transfection; for Protein 72 hr: 72 hr post-transfection. On the procedure: A549 cells were plated in 6-well plates at final counts of 70,000 cells/well in 2 ml of complete growth media (Ham's F12, Cellgro Cat# 10-080-CV+10% FBS). Transfection was performed using 2.5 uL of RNAiMax (Invitrogen Cat# 13778-150) per well. Final concentration of siNAs was 30, 3, 0.3, 0.03, 0.003, and 0.0003 nM done in duplicate. The siNAs were incubated for 24-72 hours. The duplicate samples were pooled to prepare protein lysates and RNA using the “PARIS” Protein and RNA Isolation System from Ambion, Cat# 1921. The total protein in the lysates was measured using a Bradford Dye Reagent (Bio-Rad, Cat# 500-0205).SDS-PAGE/Western Blotting was performed on the on the protein samples and RT-PCR on the RNA samples.
The protein source for the Western Blot experiments were from transfection of A549 cells in a 6 well plate, as described above.
Protein samples were diluted 1:1 in 2× Laemmli buffer with 5% β-mercapto-ethanol and incubated at 95° C. for 5 minutes. 10 ug of protein was loaded in each lane of 7.5% Tris-HCl gel. One lane was designated for MagicMark Protein Standard (Invitrogen # LC5602). Another lane was designated for a Precision Plus Protein Standard (Bio-Rad, Cat# 161-0374). The gel was run at 100V for approximately 2 hours. Protein was transferred to a PVDF membrane at 100V for 60 minutes. Once the transfer was finished, the membrane was blocked in 1% Casein in PBS (BioRad Cat#161-0783) for 1 hour on a plate rocker at room temperature followed by the overnight incubation at 4° C. with STAT1 primary antibody (Clontech, Cat# 610185) diluted 1:500 in 1% Casein in PBS. On the next day, the blot was washed 4×5 minutes in PBST (0.1% Tween-20 in PBS) solution and incubated for 30 minutes at room temperature with goat anti-mouse secondary antibody (Pierce Cat #3 31430) diluted 1:20,000 in 1% Casein in PBS. Then, the blot was washed 4×5 minutes with PBST, rinsed with PBS, and incubated for 1 minute with ECL Western Blotting Substrate (Pierce Biotechnology, Cat# 32106). The bands were visualized on the Bio-Rad VersaDoc Imager.
The level of protein was quantified using the Bio-Rad VersaDoc Imager according to the protocols of that piece of equipment. A pixel count was performed in each lane using an area of identical size. Each sample was then compared to the appropriate control treated sample and converted to a percent of protein remaining compared to control.
An assessment of the level of mRNA at each timepoint was also made and protein samples from the treated cells were used in Western blots with an α-STAT1 antibody. (Clontech, Cat# 610185) and anti-Tubulin Ab (Sigma # T6199) in human A549 cells. Cells were transfected 24, 48 or 72 hours before harvesting total protein and the final concentration of siNAs was 30 nM. Lanes were loaded with 10 ug of total protein. Quantification was done of both the STAT1α and the STAT1β proteins together. All the siNAs tested reduced STAT1 protein at each of the tested timepoints, with the highest degree of protein reduction being observed at 72 hours post-transfection.

Another data set deals with STAT1 mRNA. As to the kind of experiment: Stat1 mRNA knockdown and EC50 in human bronchial epithelial cells (NHBE). The data set is classed as cell-based. Particulars: 48 hours post transfection, mean of 3 donors; for EC50: Stat1 mRNA knockdown; for Maximum mRNA Knockdown: Stat1 mRNA. On the procedure:
Human Bronchial Epithelial cells (NHBE cells) obtained from Lonza (Cat. No. CC-2540) were grown at 37 degrees in the presence of 5% CO2 and cultured in BEBM basal medium (Lonza, Cat. No. CC-3171) on Biocoat Collagen1 coated flasks (Becton Dickinson).
Cells were plated in collagen 1 coated plates and cultured in appropriate culture media. The cells were cultured for 24 hours after plating at 37 deg in the presence of 5% CO2. siNAs were diluted in OptiMEM 1 to 1 uM and the transfection agent to 25 ug/ml. For formulation of the siNAs equal volumes of the diluted siNA and delivery lipid were combined and incubated for 20 minutes at room temperature. Cells were meanwhile trypsinised and resuspended in antibiotic free BEBM media at 150,000 cells/ml. 20 ul of the formulated siNA and 80 ul of BEBM media was added per well of a 96 well plate (6 replicates/data point/siNA concentration) so as to give a nine point dose range of the siNAs (100 nM, 30 nM, 10 nM, 3 nM, 1 nM, 0.3 nM, 0.1 nM, 0.03 nM, 0.01 nM). The time of incubation with the transfection agent-siNA complexes were 48 hours with one change of media at 24 hours.
Total RNA was isolated from the cells in the 96-well plate format using the Automated SV96 Total RNA Isolation System (Promega) according to the manufacturer's instructions. The Biomek 2000 Laboratory Automation Workstation (Beckman Coulter) was used to apply the transfected cell lysates to a silica membrane. RNase-Free DNase I was then applied directly to the silica membrane to digest contaminating genomic DNA. The bound total RNA was further purified from contaminating salts, proteins and cellular impurities by simple washing steps. Finally, total RNA was eluted from the membrane by the addition of Nuclease-Free Water.
A series of probes and primers were used for the detection of mRNA transcripts of STAT1, OAS1, and GAPDH (as control/normalisation) in the human cell lines. The assays were performed on an ABI 7900HT instrument according to the manufacturer's instructions.
With TaqMan data, critical threshold values (Ct) were converted to copy numbers corresponding to the particular gene analysed in each well of the 384 well plate. Six identical wells were prepared in each plate for a given treatment. […] Determination of the percentage coefficient of variation (CV) (% C.V.=[standard deviation/average]*100) allowed the omitting of wells whose value was an outlier (so that % C.V.<25). Relative abundance (aka relative expression) of a gene was determined by dividing the mean copy number of that gene with its GAPDH counterpart in that particular sample.
EC50 values were calculated from the data using sigma plot. All calculations of the efficacy and potency of the siNAs were done relative to the non-targeting control siNA.

Consider “25351-DC: STAT1 siNA duplex, human target site 2249; modified strands SEQ ID NO: 39 and 40 (chain 1 CCUACACGAAGAAAGAACUTT; chain 2 AGUUCUUUCUUCGUGUAGGUU; chain 1: DNA at AGT, 2'-fluoro at CU, [invAb] at 5' end, 3' end, backbone not given here; chain 2: sugars from the 5' end rrrfffffffffmfmfmmmmm, backbone not given here)”, for which, in the data set on STAT1 protein, the “Protein 24 hr” value is given as 87%, the “Protein 48 hr” value came to 48% and the “Protein 72 hr” value is reported as 20%.
For the substance “25367-DC: STAT1 siNA duplex, human target site 966; modified strands SEQ ID NO: 71 and 72 (chain 1 GCUUGACAAUAAGAGAAAGTT; chain 2 CUUUCUCUUAUUGUCAAGCUU; chain 1: DNA at AGT, 2'-fluoro at CU, [invAb] at 5' end, 3' end, backbone not given here; chain 2: sugars from the 5' end rrrffffffmffmffmmmfmm, backbone not given here)”, in the data set with STAT1 protein, the “Protein 24 hr” value is reported as 83%, the “Protein 48 hr” value amounted to 53% and the “Protein 72 hr” value is given as 30%.
As for “25368-DC: STAT1 siNA duplex, human target site 782; modified strands SEQ ID NO: 73 and 74 (chain 1 GUAAAGUCAGAAAUGUGAATT; chain 2 UUCACAUUUCUGACUUUACUU; chain 1: DNA at AGT, 2'-fluoro at CU, [invAb] at 5' end, 3' end, backbone not given here; chain 2: sugars from the 5' end rrrmfmfffffmmffffmfmm, backbone not given here)”, in the data set on STAT1 protein, the “Protein 24 hr” value stood at 80%, the “Protein 48 hr” value was found to be 54% and the “Protein 72 hr” value is 20%. For the same substance, in the data set on STAT1 mRNA, the midpoint of the response, the EC50, lay at 60 pM and the “Maximum mRNA Knockdown” value worked out at 93%.
In the case of “25369-DC: STAT1 siNA duplex, human target site 602; modified strands SEQ ID NO: 75 and 76 (chain 1 GGAAAAGCAAGCGUAAUCUTT; chain 2 AGAUUACGCUUGCUUUUCCUU; chain 1: DNA at AGT, 2'-fluoro at CU, [invAb] at 5' end, 3' end, backbone not given here; chain 2: sugars from the 5' end rrrffmfmfffmfffffffmm, backbone not given here)”, in the data set on STAT1 protein, the “Protein 24 hr” value turned out to be 85%, the “Protein 48 hr” value is listed as 58% and the “Protein 72 hr” value came to 38%.
For the substance “25372-DC: STAT1 siNA duplex, human target site 968; modified strands SEQ ID NO: 81 and 82 (chain 1 UUGACAAUAAGAGAAAGGATT; chain 2 UCCUUUCUCUUAUUGUCAAUU; chain 1: DNA at AGT, 2'-fluoro at CU, [invAb] at 5' end, 3' end, backbone not given here; chain 2: sugars from the 5' end rrrffffffffmffmffmmmm, backbone not given here)”, in the data set on STAT1 protein, the “Protein 24 hr” value is recorded as 76%, the “Protein 48 hr” value was found to be 54% and the “Protein 72 hr” value is listed as 29%. Also, in the data set on STAT1 mRNA, the midpoint of the response, the EC50, lay at 500 pM and the “Maximum mRNA Knockdown” value worked out at 96%.

The EC50 is the concentration at which the effect is half-maximal. A low value points to a more potent agent.
